Reference: paper PMC5823406, “Vehicle development, pharmacokinetics and toxicity of the anti-invasive agent 4-fluoro-3’,4’,5’-trimethoxychalcone in rodents” (PLoS ONE, 2018)
“And” between values parts separate entries of the source, which are not always exact repeats. Equal values may be shown once.

What was measured:
Caco-2 = Caco-2 permeability and recovery; format: in vitro ADME; conditions: Caco-2, pH 7.4/7.4; 10 μM
From the text: (§1) Table 3 In vitro physicochemical, stability and metabolism data. | column: Value

CYP 1A2 = target: T1, CYP 1A2 (Homo sapiens, UniProt P05177); test: CYP inhibition 1A2 (CEC substrate); format: in vitro ADME; conditions: 10 μM
T1 sequence (P05177 1-516): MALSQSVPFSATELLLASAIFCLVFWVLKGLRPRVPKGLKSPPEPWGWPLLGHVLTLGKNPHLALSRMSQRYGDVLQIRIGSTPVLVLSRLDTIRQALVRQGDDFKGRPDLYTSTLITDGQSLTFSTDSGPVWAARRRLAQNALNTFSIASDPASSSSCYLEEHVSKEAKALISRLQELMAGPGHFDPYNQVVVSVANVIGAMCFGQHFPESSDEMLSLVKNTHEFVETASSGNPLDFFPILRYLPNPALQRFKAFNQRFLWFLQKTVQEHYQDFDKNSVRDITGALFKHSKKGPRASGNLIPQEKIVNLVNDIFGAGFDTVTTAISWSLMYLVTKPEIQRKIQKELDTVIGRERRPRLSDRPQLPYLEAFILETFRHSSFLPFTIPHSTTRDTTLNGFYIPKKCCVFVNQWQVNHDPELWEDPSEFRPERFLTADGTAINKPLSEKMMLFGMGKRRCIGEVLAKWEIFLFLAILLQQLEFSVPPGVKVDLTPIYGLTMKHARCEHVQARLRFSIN
From the text: as §1

[1] = Whole blood C16 determination after 7-day dosing via medicated gels; format: in vivo, mouse; conditions: for Blood concentration of C16: Average±SD
Method: On the evening of day 6, blood was collected via the tail vein for the 0, 100 and 300 mg/kg C16 cohorts for determination of the whole blood C16 level. On the morning of day 7, mice of the 0, 100 and 300 mg/kg C16 cohorts were anesthetized by IP injection with 250 mg/kg of Avertin (20 mL/kg, preparation see Section E in S1 File). Blood for C16 determination and hematological and biochemical analysis was collected via cardiac exsanguination (600 μL to 1 mL). Detailed analysis protocols are described below. Afterward, animals were sacrificed by cervical dislocation.
Blood samples (25 μL) were collected via the tail vein or cardiac puncture (last time point). Blood was pipetted into a tube with 25 μL heparinized water (1 μL of sodium heparin (1000 units/mL) + 24 μL water) within 30 seconds of collection. The sample was pipetted up and down five times, immediately frozen on dry ice, and stored at -60°C to -80°C until analysis.
E.C. Whole blood C16 levels
Table AA. Individual blood concentration (ng/mL) for C16 in cohorts on medicated gel .
Cohort and animal Evening Morning
BLOQ: below the limit of quantitation (0.5 ng/mL). Samples that were below the limit of quantification were not used in the calculation of
Table BB. […]

MCF-7/6 = tested on: MCF-7/6; design: method as in PMID 26204510; conditions: cited from earlier work

COc1cc(C(=O)/C=C/c2ccc(F)cc2)cc(OC)c1OC [C16, 4-fluoro-3’,4’,5’-trimethoxychalcone]
Permeability A-B (Caco-2): 10.4 10^−6 cm/s | Permeability A-B: recovery (Caco-2): 17% | Permeability B-A (Caco-2): 4.9 10^−6 cm/s | Permeability B-A: recovery (Caco-2): 66% | CYP inhibition 1A2 (CEC substrate) (CYP 1A2): 36 % inhibition of control | Blood concentration of C16 ([1]; 100 mg/kg cohort on medicated gel, Evening (day 6)): 8.48 ± 2.28 ng/mL | Individual blood concentration of C16 ([1]; 100 mg/kg cohort on medicated gel, Evening, animals 2-1 to 2-4): 8.39 ng/mL and 5.39 ng/mL and 9.33 ng/mL and 10.8 ng/mL | Blood concentration of C16 ([1]; 100 mg/kg cohort on medicated gel, Morning (day 7)): 31.2 ± 26.0 ng/mL | Individual blood concentration of C16 ([1]; 100 mg/kg cohort on medicated gel, Morning, animals 2-1 to 2-4): 11.5 ng/mL and 6.14 ng/mL and 56.2 ng/mL and 50.8 ng/mL | Blood concentration of C16 ([1]; 300 mg/kg cohort on medicated gel, Evening (day 6)): 7.63 ± 5.07 ng/mL | Individual blood concentration of C16 ([1]; 300 mg/kg cohort on medicated gel, Evening, animals 3-1, 3-3, 3-4): 3.51 ng/mL and 13.3 ng/mL and 6.09 ng/mL | Blood concentration of C16 ([1]; 300 mg/kg cohort on medicated gel, Morning (day 7)): 38.1 ± 27.8 ng/mL | Individual blood concentration of C16 ([1]; 300 mg/kg cohort on medicated gel, Morning, animals 3-1 to 3-4): 30.1 ng/mL and 21.6 ng/mL and 79.3 ng/mL and 21.3 ng/mL | Whole blood C16 concentrations versus projected EC50 ([1]; medicated gel, day 6 evening and day 7 morning): above its projected EC50 | Activity level in 3D confrontation culture (chick heart invasion assay, MCF-7/6) (MCF-7/6): 10 nM
